Our source for the Dmax and DC50 values is patent publication US12257247B2 (Monte Rosa Therapeutics AG, priority 2023, dated 2025).

Read-outs that look alike come from different tables or passages of the source.

This assay concerns the target T1, VAV1 (Homo sapiens, UniProt P15498+Q96SW2).
T1 construct: A heterozygous VAV1 C-terminal HiBiT knock-in pool was generated at Monte Rosa Therapeutics from a clonal Jurkat cell; endogenous in cells; host or cells: Jurkat clone stably expressing LgBiT, homozygous GSPT1-G575N; heterozygous VAV1-HiBiT knock-in pool
Kind of assay: VAV1 degradation activity, VAV1-HiBiT knock-in Jurkat luminescence assay (Example A, Table 1). The conditions noted are these: VAV1-HiBiT knock-in Jurkat cells, luminescence read at 6 and 24 hours; for Dmax: Jurkat. In kind it is cell-based. In outline:
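Jurkat cells carrying VAV1-HiBiT knock-in, plated in RPMI/10% FBS with Endurazine live-cell substrate and pre-incubated ~16 h at 37° C. Compound dosed from 10 μM stock; luminescence read 6 and 24 h later. Response normalised to plate negative/positive controls, EC50 from 3-parameter logistic fit (hillslope 1).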
(With HiBiT, luminescence reflects the tagged protein that the partner subunit can reach.)

Setting [1] is: read-out: VAV1 DC50 (nM), class.

On to `CC1(C)COCC(=O)N1c1ccc(-c2cccc(C3CCC(=O)NC3=O)c2Cl)cc1` (stereo not shown) [Compound 402, 3-(2-chloro-4′-(3,3-dimethyl-5-oxomorpholino)-[1,1′-biphenyl]-3-yl)piperidine-2,6-dione], for which the Dmax (read-out: VAV1 Dmax %) worked out at 97.4% and the Dmax (read-out: VAV1 Dmax %, class) was greater than 90%. For the same molecule, the DC50 is 5.3 nM (read-out: VAV1 DC50) and no more than 100 nM under setting [1].

As for `CC1(C)CCCC(=O)N1c1ccc(-c2cccc(C3CCC(=O)NC3=O)c2Cl)cc1` (stereo not shown) [Compound 403, 3-(2-chloro-4′-(2,2-dimethyl-6-oxopiperidin-1-yl)-[1,1′-biphenyl]-3-yl)piperidine-2,6-dione], the Dmax is 98.2% (read-out: VAV1 Dmax %) and greater than 90% (read-out: VAV1 Dmax %, class). Besides, the DC50 is 3.26 nM (read-out: VAV1 DC50) and no more than 100 nM under setting [1].

`O=C1CCC(c2cccc(-c3ccc(CN4C(=O)CCCC45CC5)nc3)c2Cl)C(=O)N1` (stereo not shown) [Compound 404, 3-(2-chloro-3-(6-((5-oxo-4-azaspiro[2.5]octan-4-yl)methyl)pyridin-3-yl)phenyl)piperidine-2,6-dione]: the Dmax is 65.5% (read-out: VAV1 Dmax %) and 60 to 90% (read-out: VAV1 Dmax %, class). In addition, the DC50 (read-out: VAV1 DC50) stood at 262 nM and the DC50 under setting [1] was 100 to 1000 nM.

As to `O=C1CCC(c2cccc(-c3ccc(N4C(=O)CC45CCC5)cc3)c2Cl)C(=O)N1` (stereo not shown) [Compound 405, 3-(2-chloro-4′-(2-oxo-1-azaspiro[3.3]-heptan-1-yl)-[1,1′-biphenyl]-3-yl)piperidine-2,6-dione], the Dmax reads like this: (read-out: VAV1 Dmax %) 76.3%; (read-out: VAV1 Dmax %, class) 60 to 90%. Also, the DC50 (read-out: VAV1 DC50) came to 383 nM and the DC50 under setting [1] was 100 to 1000 nM.

Turning to `CN1Cc2cccc(-c3ccc(-c4cccc(C5CCC(=O)NC5=O)c4Cl)cc3)c2S1(=O)=O` (stereo not shown) [Compound 406, 3-(2-chloro-4′-(2-methyl-1,1-dioxido-2,3-dihydrobenzo[d]isothiazol-7-yl)-[1,1′-biphenyl]-3-yl)piperidine-2,6-dione], the Dmax (read-out: VAV1 Dmax %) turned out to be 82.4% and the Dmax (read-out: VAV1 Dmax %, class) was 60 to 90%. Also, the DC50 (read-out: VAV1 DC50) turned out to be 25.9 nM and the DC50 under setting [1] was no more than 100 nM.

Turning to `O=C1CCC(c2cccc(-c3ccc(N4C(=O)CCCC45COC5)cc3)c2Cl)C(=O)N1` (stereo not shown) [Compound 407, 3-(2-chloro-4′-(6-oxo-2-oxa-5-azaspiro[3.5]nonan-5-yl)-[1,1′-biphenyl]-3-yl)piperidine-2,6-dione], the Dmax runs as follows: (read-out: VAV1 Dmax %) 95.5%; (read-out: VAV1 Dmax %, class) greater than 90%. Moreover, the DC50 reads like this: (read-out: VAV1 DC50) 6.17 nM; under setting [1], no more than 100 nM.

`Cn1cnc(Cc2ccc(-c3cccc(C4CCC(=O)NC4=O)c3Cl)cc2)c1` (stereo not shown) [Compound 408, 3-(2-chloro-4′-((1-methyl-1H-imidazol-4-yl)methyl)-[1,1′-biphenyl]-3-yl)piperidine-2,6-dione]: the Dmax is 96% (read-out: VAV1 Dmax %) and greater than 90% (read-out: VAV1 Dmax %, class). In addition, the DC50 runs as follows: (read-out: VAV1 DC50) 30.8 nM; under setting [1], no more than 100 nM.

`CN1CCC[C@H](c2ccc(-c3cccc(C4CCC(=O)NC4=O)c3Cl)cc2)C1=O` (stereo partly drawn) [Compound 409, 3-(2-chloro-4′-((R)-1-methyl-2-oxopiperidin-3-yl)-[1,1′-biphenyl]-3-yl)piperidine-2,6-dione]: the Dmax was 95.2% (read-out: VAV1 Dmax %) and greater than 90% (read-out: VAV1 Dmax %, class). The DC50 was 7.82 nM (read-out: VAV1 DC50) and no more than 100 nM under setting [1].

For the molecule `CN1CCC[C@@H](c2ccc(-c3cccc(C4CCC(=O)NC4=O)c3Cl)cc2)C1=O` (stereo partly drawn) [Compound 410, 3-(2-chloro-4′-((S)-1-methyl-2-oxopiperidin-3-yl)-[1,1′-biphenyl]-3-yl)piperidine-2,6-dione], the Dmax was 92.1% (read-out: VAV1 Dmax %) and greater than 90% (read-out: VAV1 Dmax %, class). In addition, the DC50 is 17 nM (read-out: VAV1 DC50) and no more than 100 nM under setting [1].

Consider `COCc1ccn(C)c(=O)c1-c1ccc(-c2cccc(C3CCC(=O)NC3=O)c2Cl)cc1` (stereo not shown) [Compound 411, 3-(2-chloro-4′-(4-(methoxymethyl)-1-methyl-2-oxo-1,2-dihydropyridin-3-yl)-[1,1′-biphenyl]-3-yl)piperidine-2,6-dione], for which the Dmax (read-out: VAV1 Dmax %) was found to be 98.2% and the Dmax (read-out: VAV1 Dmax %, class) is greater than 90%. For the same molecule, the DC50 is, setting by setting: (read-out: VAV1 DC50) 1.99 nM; under setting [1], no more than 100 nM.

Usually Dmax stands for the largest share of the target that was removed. One may read the DC50 as the midpoint of the concentration-degradation curve.
